Several values for one entry are separate records, joined by “and”; a condition that tells them apart may be missing. Identical values can stand only once. Like-named read-outs stand apart in the source and are kept apart here.
Legend:
[1] = tested on: Salmonella typhimurium; strains TA98, TA100 and TA102; test: standardised AMES test, overall mutagenicity finding; type: cell-based
Excerpt: (§1) The solvent used is DMSO (dimethyl sulfoxide).

[2] = tested on: Salmonella typhimurium strain TA100
Description: Compounds V1 and E2 are subjected to a standardised AMES test (bacteria: Salmonella typhimurium; strains TA98, TA100 and TA102). […] The test is carried out by the person skilled in the art employing standard methods which are well known in the prior art. The solvent used is DMSO (dimethyl sulfoxide).
The test is carried out both without and also with metabolic activation using an S9 mix.

[3] = tested on: Salmonella typhimurium strain TA98; test: standardised AMES test, strain TA98; type: cell-based
Excerpt: as §1

[4] = tested on: Salmonella typhimurium strain TA102; test: standardised AMES test, strain TA102; type: cell-based
[5] = metabolic activation using S9 mix, 5 μg/plate
[6] = metabolic activation using S9 mix, 15.8 μg/plate
[7] = metabolic activation using S9 mix, 50 μg/plate
[8] = metabolic activation using S9 mix, 158 μg/plate
[9] = metabolic activation using S9 mix, 500 μg/plate
[10] = metabolic activation using S9 mix, 1580 μg/plate
[11] = metabolic activation using S9 mix, 5000 μg/plate
[12] = no metabolic activation, 5 μg/plate
[13] = no metabolic activation, 15.8 μg/plate
[14] = no metabolic activation, 50 μg/plate
[15] = no metabolic activation, 158 μg/plate
[16] = no metabolic activation, 500 μg/plate
[17] = no metabolic activation, 1580 μg/plate
[18] = no metabolic activation, 5000 μg/plate

## CC(C)(C)c1ccc2cccc(O)c2n1.[Li] [Compound E2, lithium 2-tert-butyl-8-hydroxyquinoline]
[1]; both without and with metabolic activation using an S9 mix
  mutagenic effect in AMES test: No mutagenic effect
[2]; [5]
  Revertants/plate (mean ± SD) TA100: 199 ± 4 Revertants/plate
[2]; [6]
  Revertants/plate (mean ± SD) TA100: 132 ± 11 Revertants/plate
[2]; [7]
  Revertants/plate (mean ± SD) TA100: 143 ± 8 Revertants/plate
[2]; [8]
  Revertants/plate (mean ± SD) TA100: 147 ± 8^S Revertants/plate
[2]; [9]
  Revertants/plate (mean ± SD) TA100: 108 ± 1^SB Revertants/plate
[2]; [10]
  Revertants/plate (mean ± SD) TA100: 57 ± 16 Revertants/plate
[2]; [11]
  Revertants/plate (mean ± SD) TA100: 4 ± 3 Revertants/plate
[2]; [12]
  Revertants/plate (mean ± SD) TA100: 142 ± 25 Revertants/plate
[2]; [13]
  Revertants/plate (mean ± SD) TA100: 133 ± 8 Revertants/plate
[2]; [14]
  Revertants/plate (mean ± SD) TA100: 104 ± 12 Revertants/plate
[2]; [15]
  Revertants/plate (mean ± SD) TA100: 103 ± 1^S Revertants/plate
[2]; [16]
  Revertants/plate (mean ± SD) TA100: 62 ± 17^SB Revertants/plate
[2]; [17]
  Revertants/plate (mean ± SD) TA100: 41 ± 2 Revertants/plate
[2]; [18]
  Revertants/plate (mean ± SD) TA100: 7 ± 3 Revertants/plate
[3]; [5]
  Revertants/plate (mean ± SD) TA98: 24 ± 6 Revertants/plate
[3]; [6]
  Revertants/plate (mean ± SD) TA98: 30 ± 2 Revertants/plate
[3]; [7]
  Revertants/plate (mean ± SD) TA98: 33 ± 4 Revertants/plate
[3]; [8]
  Revertants/plate (mean ± SD) TA98: 30 ± 3^S Revertants/plate
[3]; [9]
  Revertants/plate (mean ± SD) TA98: 25 ± 7^SB Revertants/plate
[3]; [10]
  Revertants/plate (mean ± SD) TA98: 18 ± 5^SB Revertants/plate
[3]; [11]
  Revertants/plate (mean ± SD) TA98: 13 ± 1^SE Revertants/plate
[3]; [12]
  Revertants/plate (mean ± SD) TA98: 23 ± 11 Revertants/plate
[3]; [13]
  Revertants/plate (mean ± SD) TA98: 29 ± 3 Revertants/plate
[3]; [14]
  Revertants/plate (mean ± SD) TA98: 18 ± 6 Revertants/plate
[3]; [15]
  Revertants/plate (mean ± SD) TA98: 20 ± 6^S Revertants/plate
[3]; [16]
  Revertants/plate (mean ± SD) TA98: 14 ± 8^SB Revertants/plate
[3]; [17]
  Revertants/plate (mean ± SD) TA98: 10 ± 4^SB Revertants/plate
[3]; [18]
  Revertants/plate (mean ± SD) TA98: 17 ± 6^SE Revertants/plate
[4]; [5]
  Revertants/plate (mean ± SD) TA102: 302 ± 18 Revertants/plate
[4]; [6]
  Revertants/plate (mean ± SD) TA102: 255 ± 8 Revertants/plate
[4]; [7]
  Revertants/plate (mean ± SD) TA102: 245 ± 22 Revertants/plate
[4]; [8]
  Revertants/plate (mean ± SD) TA102: 142 ± 22^S Revertants/plate
[4]; [9]
  Revertants/plate (mean ± SD) TA102: 89 ± 11^SB Revertants/plate
[4]; [10]
  Revertants/plate (mean ± SD) TA102: 62 ± 3^SB Revertants/plate
[4]; [11]
  Revertants/plate (mean ± SD) TA102: 37 ± 1^SE Revertants/plate
[4]; [12]
  Revertants/plate (mean ± SD) TA102: 224 ± 6 Revertants/plate
[4]; [13]
  Revertants/plate (mean ± SD) TA102: 217 ± 41 Revertants/plate
[4]; [14]
  Revertants/plate (mean ± SD) TA102: 237 ± 11 Revertants/plate
[4]; [15]
  Revertants/plate (mean ± SD) TA102: 180 ± 11^S Revertants/plate
[4]; [16]
  Revertants/plate (mean ± SD) TA102: 124 ± 1^SB Revertants/plate
[4]; [17]
  Revertants/plate (mean ± SD) TA102: 51 ± 18^SB Revertants/plate
[4]; [18]
  Revertants/plate (mean ± SD) TA102: 25 ± 1^SE Revertants/plate

## [N-]=[N+]=[N-] [NaN3, sodium azide, reference compound]
[2]; no metabolic activation, 2 μg/plate, reference
  Revertants/plate (mean ± SD) TA100: 1090 ± 35 Revertants/plate and 743 ± 52 Revertants/plate

## Oc1cccc2cccnc12.[Li] [Liq, lithium 8-hydroxyquinoline, reference compound]
[1]; all three bacteria strains, in the presence of metabolic activation
  mutagenicity in AMES test: significant mutagenicity
[3]; [5]
  Revertants/plate (mean ± SD) TA98: 31 ± 11 Revertants/plate
[3]; [6]
  Revertants/plate (mean ± SD) TA98: 40 ± 2 Revertants/plate
[3]; [7]
  Revertants/plate (mean ± SD) TA98: 87 ± 1 Revertants/plate
[3]; [8]
  Revertants/plate (mean ± SD) TA98: 100 ± 4 Revertants/plate
[3]; [12]
  Revertants/plate (mean ± SD) TA98: 23 ± 2 Revertants/plate
[3]; [13]
  Revertants/plate (mean ± SD) TA98: 20 ± 4 Revertants/plate
[3]; [14]
  Revertants/plate (mean ± SD) TA98: 22 ± 1 Revertants/plate
[4]; [5]
  Revertants/plate (mean ± SD) TA102: 559 ± 8 Revertants/plate
[4]; [6]
  Revertants/plate (mean ± SD) TA102: 697 ± 8 Revertants/plate
[4]; [7]
  Revertants/plate (mean ± SD) TA102: 1469 ± 27 Revertants/plate
[4]; [8]
  Revertants/plate (mean ± SD) TA102: 911 ± 269 Revertants/plate
[4]; [12]
  Revertants/plate (mean ± SD) TA102: 344 ± 33 Revertants/plate
[4]; [13]
  Revertants/plate (mean ± SD) TA102: 270 ± 30 Revertants/plate
[4]; [14]
  Revertants/plate (mean ± SD) TA102: 257 ± 59 Revertants/plate

From patent publication US11005049B2, “Metal complexes” (priority 2013, dated 2021)
